Tests used:
[1] = disclosed in WO200213810; cited from earlier work
[2] = disclosed in WO200213810; cited from earlier work; remark: listed apart in the source
[3] = mouse, rat or rabbit plasma, 37° C., 10 mg/ml solution, 0 min to 4 h, HPLC
Description: Three parallel solutions of propofol hydroxybutyrate of Example 1 with a concentration of 10 mg/ml were prepared, added into and mixed with the mouse, rat or rabbit plasma, which was pre-placed in water bath (37° C.), respectively.
Three parallel solutions of propofol hydroxyvalerate of Example 3 with a concentration of 10 mg/ml were prepared, added into and mixed with mouse, rat or rabbit plasma, which was pre-placed in water bath (37° C.), respectively.

Kunming mice = details: tail vein injection; for disappearance time of FRR (onset time) / recovery time (recovery of FRR): during determination of ED50; for Median effective dose (ED50), disappearance of forepaw righting reflex: up-and-down method
Description: (§1) 60 Kunming mice with half males and half females were randomly divided into the drug test group (propofol hydroxybutyrate of the present invention) (n=30) and the Diprivan™ control group (positive control drug Diprivan™) (n=30). Median effective doses (ED50) of the substituted phenol hydroxy acid ester and Diprivan™ were determined by the up-and-down method. In the test, the mice were injected with the drugs through the tail veins, with the disappearance of the forepaw righting reflex (FRR) of the mice as a judgment index of the end point of anesthesia; the recovery of FRR of the mice as an index of recovery from anesthesia.
as §1, with “hydroxyvalerate” for “hydroxybutyrate”, “FRR” for “the forepaw righting reflex (FRR)”

In the case of `CC(C)c1cccc(C(C)C)c1OC(=O)CCC(=O)[O-].[Na+]` [propofol succinic acid monoester sodium salt], the “water-solubility” value [1] is listed as “high water-solubility” and the “stability in aqueous solution” value [2] is listed as “unstable in aqueous solution”.

In the case of `CC(C)c1cccc(C(C)C)c1OC(=O)CCCCO` [propofol hydroxyvalerate, propofol ω-hydroxyvalerate], the “in vitro decomposition in the plasma into the active compound propofol” value [3] is reported as “can be rapidly decomposed into the active compound propofol”, the “disappearance time of FRR (onset time)” value (Kunming mice) is reported as 46.1 ± 9.5 s and the “recovery time (recovery of FRR)” value (Kunming mice) is reported as 256.1 ± 61.2 s. For the same molecule, the “Median effective dose (ED50), disappearance of forepaw righting reflex” value (Kunming mice) was 60 mg/kg.

In the case of `CC(C)c1cccc(C(C)C)c1OC(=O)CCCO` [propofol hydroxybutyrate, propofol ω-hydroxybutyrate], the “in vitro decomposition in the plasma into the active compound propofol” value [3] is reported as “can be rapidly decomposed into the active compound propofol”, the anesthetic effect (Kunming mice) is reported as “definite and reversible anesthetic effect” and the “disappearance time of FRR (onset time)” value (Kunming mice) is reported as 45.3 ± 12.3 s. The “recovery time (recovery of FRR)” value (Kunming mice) was 235.6 ± 67.9 s and the “Median effective dose (ED50), disappearance of forepaw righting reflex” value (Kunming mice) was 52 mg/kg.

— US9272978B2, “Hydroxy acid ester compound of substituted phenol, preparation method and medical use thereof” (West China Hospital, Sichuan University, priority 2010, dated 2016)
